Results as given in ChEMBL document CHEMBL1201862, “PubChem BioAssay data set” (2004).
The source made the active and inactive calls.

Legend:
[1] = target: T1, Heat shock factor protein 1 (Mus musculus, UniProt P38532); experiment: inhibition of MG132-induced HSE-luciferase signal, confirmation, cell-based, NIH3T3, luminescence, dose retest (AID 2382); format: functional;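 further: NIH3T3 fibroblasts with HSF1-driven luciferase reporter stressed by proteasome inhibitor MG132; luminescence from HSF1-driven luciferase expression after 8 hours of MG132 stress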
T1 sequence (P38532 whole entry): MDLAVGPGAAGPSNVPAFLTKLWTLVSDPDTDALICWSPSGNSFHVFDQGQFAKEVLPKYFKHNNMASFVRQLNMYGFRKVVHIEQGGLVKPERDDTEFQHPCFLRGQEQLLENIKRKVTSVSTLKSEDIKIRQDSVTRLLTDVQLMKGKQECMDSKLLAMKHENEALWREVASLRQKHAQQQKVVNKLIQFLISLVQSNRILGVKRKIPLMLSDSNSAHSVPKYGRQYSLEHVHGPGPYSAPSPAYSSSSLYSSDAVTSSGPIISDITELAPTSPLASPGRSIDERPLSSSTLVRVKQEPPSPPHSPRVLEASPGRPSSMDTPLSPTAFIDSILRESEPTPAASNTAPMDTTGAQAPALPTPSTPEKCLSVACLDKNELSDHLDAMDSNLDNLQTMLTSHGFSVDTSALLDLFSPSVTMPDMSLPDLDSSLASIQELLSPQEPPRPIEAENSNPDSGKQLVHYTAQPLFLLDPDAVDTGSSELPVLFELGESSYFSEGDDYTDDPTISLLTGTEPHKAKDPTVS

[2] = target: Cytochrome P450 2C9 (Homo sapiens, UniProt P11712)
[3] = target: Cytochrome P450 3A4 (Homo sapiens, UniProt P08684);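 further: CYP3A4 tested as one member of a cytochrome P450 panel screen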
[4] = target: T2, Cytochrome P450 1A2 (Homo sapiens, UniProt P05177);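 further: PubChem cytochrome P450 panel assay, CYP1A2 panel member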
T2 sequence (P05177 whole entry): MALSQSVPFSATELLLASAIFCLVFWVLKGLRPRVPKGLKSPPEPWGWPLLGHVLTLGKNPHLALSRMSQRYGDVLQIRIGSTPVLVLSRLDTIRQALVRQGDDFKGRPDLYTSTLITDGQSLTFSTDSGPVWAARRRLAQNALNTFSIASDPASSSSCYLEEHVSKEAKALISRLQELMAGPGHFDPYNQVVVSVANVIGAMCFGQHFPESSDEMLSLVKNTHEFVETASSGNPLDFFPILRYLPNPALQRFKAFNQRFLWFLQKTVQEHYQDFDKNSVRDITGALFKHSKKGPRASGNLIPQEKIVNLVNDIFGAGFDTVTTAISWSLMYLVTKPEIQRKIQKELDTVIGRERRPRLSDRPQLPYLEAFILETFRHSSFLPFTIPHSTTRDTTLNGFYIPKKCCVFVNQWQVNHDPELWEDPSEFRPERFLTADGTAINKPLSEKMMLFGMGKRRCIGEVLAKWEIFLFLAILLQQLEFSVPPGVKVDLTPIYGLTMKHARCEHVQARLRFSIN

[5] = target: Cytochrome P450 2C19 (Homo sapiens, UniProt P33261); experiment: Cytochrome panel assay with activity outcomes. Panel member name: p450-cyp2c19 Compounds with AC50 equal or less than 10 uM are considered active; format: functional
[6] = target: Cytochrome P450 2D6 (Homo sapiens, UniProt P10635);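 further: CYP2D6 member of a cytochrome P450 panel assay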
Cytochrome P450 2D6, sequence (P10635 whole entry): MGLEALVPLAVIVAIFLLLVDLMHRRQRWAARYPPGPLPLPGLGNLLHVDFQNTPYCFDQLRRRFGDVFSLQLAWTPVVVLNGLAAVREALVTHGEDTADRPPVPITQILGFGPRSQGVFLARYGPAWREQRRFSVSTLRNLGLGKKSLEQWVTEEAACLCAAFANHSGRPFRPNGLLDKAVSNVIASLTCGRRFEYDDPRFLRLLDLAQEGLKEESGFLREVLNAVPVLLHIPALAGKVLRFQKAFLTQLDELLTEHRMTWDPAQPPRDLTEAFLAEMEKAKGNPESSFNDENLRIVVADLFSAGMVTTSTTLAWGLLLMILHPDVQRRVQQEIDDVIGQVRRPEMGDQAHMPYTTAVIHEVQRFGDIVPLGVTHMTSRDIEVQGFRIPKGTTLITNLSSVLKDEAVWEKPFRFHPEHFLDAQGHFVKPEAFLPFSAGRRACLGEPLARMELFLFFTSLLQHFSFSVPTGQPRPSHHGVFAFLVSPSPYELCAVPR

Cytochrome P450 2C9, sequence (P11712 whole entry): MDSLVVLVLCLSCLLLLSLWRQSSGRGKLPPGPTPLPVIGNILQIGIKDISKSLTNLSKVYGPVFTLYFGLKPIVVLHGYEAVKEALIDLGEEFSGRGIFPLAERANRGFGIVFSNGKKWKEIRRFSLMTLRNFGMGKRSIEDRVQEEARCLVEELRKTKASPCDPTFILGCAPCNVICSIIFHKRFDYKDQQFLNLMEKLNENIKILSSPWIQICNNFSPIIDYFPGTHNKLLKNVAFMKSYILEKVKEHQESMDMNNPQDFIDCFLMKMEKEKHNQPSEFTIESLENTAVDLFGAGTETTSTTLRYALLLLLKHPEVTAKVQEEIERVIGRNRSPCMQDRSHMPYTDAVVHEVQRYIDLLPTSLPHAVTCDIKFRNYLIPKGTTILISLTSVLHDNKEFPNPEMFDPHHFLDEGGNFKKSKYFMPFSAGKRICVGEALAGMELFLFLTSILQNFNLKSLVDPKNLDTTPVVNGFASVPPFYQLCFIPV
Cytochrome P450 3A4, sequence (P08684 whole entry): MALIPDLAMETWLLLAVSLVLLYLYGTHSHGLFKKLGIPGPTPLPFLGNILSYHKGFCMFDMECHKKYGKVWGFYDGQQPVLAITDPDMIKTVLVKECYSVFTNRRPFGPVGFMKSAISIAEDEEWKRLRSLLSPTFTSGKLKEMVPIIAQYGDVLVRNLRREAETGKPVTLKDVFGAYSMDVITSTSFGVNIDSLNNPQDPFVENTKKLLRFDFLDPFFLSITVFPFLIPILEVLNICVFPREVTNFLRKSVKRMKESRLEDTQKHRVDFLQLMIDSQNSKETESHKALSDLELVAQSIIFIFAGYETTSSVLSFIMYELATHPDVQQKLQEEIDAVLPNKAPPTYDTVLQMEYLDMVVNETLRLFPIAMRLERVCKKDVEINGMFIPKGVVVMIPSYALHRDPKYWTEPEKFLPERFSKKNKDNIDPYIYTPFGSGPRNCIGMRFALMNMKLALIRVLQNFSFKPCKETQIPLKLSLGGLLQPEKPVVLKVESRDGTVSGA
Cytochrome P450 2C19, sequence (P33261 whole entry): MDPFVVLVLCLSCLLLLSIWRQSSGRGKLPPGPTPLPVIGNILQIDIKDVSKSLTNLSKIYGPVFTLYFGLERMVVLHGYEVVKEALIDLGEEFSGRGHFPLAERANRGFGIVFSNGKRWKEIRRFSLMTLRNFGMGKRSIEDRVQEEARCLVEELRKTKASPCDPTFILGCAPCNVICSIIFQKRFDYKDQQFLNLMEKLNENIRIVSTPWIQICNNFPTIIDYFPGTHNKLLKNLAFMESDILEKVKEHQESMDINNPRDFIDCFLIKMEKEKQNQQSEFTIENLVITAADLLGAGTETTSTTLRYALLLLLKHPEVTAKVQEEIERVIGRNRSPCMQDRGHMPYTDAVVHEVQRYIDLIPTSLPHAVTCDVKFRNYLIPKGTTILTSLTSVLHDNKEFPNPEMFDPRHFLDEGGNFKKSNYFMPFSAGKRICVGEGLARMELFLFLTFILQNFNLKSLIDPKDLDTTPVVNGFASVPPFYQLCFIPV

## Cc1cc(=O)oc2c(C)c(OC(C)C(=O)NCCCN3CCOCC3)ccc12 (stereo unspecified)
[1]
  EC50: > 195 µM (not active)

## O=C(C[C@@H](c1ccccc1)N1CCCCC1)c1ccccc1
[2]
  AC50: 3.16 µM (inconclusive)

## O=C(NNS(=O)(=O)c1ccc(Cl)cc1)c1cnn(-c2ccccc2)c1-n1cccc1
[3]
  AC50: 25.1 µM (inconclusive)

## CC(NC(=O)Cn1cnc([N+](=O)[O-])n1)c1ccccc1 (stereo unspecified)
[2]
  AC50: 35.5 µM (inconclusive)

## CN1CCN(c2ncncc2-c2ccoc2)CC1
[4]
  AC50: 31.6 µM (inconclusive)
[5]
  AC50: inconclusive
[6]
  AC50: 31.6 µM (inconclusive)

## O=C(CC1CCCCC1)N1CCC(c2nc(-c3ccc(S(=O)(=O)N4CCCC4)cc3)no2)CC1
[3]
  AC50: 14.1 µM (inconclusive)

## C[C@@H](C(=O)NCc1nc2ccccc2[nH]1)[C@@H]1C[C@@]1(C)[C@@H](NC(=O)OCc1ccccc1)c1ccccc1
[4]
  AC50: 12.6 µM (inconclusive)
[6]
  AC50: 15.8 µM (inconclusive)

## Cc1ccc(-c2n[nH]cc2/C=N/n2c(C)nc3ccccc3c2=O)cc1
[1]
  EC50: > 195 µM (not active)

## O=C(CN1CCN(Cc2ccccc2)CC1)N/N=C\C=C/c1ccco1
[1]
  EC50: > 195 µM (not active)

## COC(=O)N1CCC2(CCN(C(=O)Nc3ccc(OC)cc3)CC2)CC1
[4]
  AC50: 25.1 µM (inconclusive)
[6]
  AC50: 39.8 µM (inconclusive)

## [H]/N=C(\N/C(=N/[H])Nc1ccc(Cl)cc1)NC(C)C [PROGUANIL]
[6]
  AC50: 10 µM (inconclusive)

## CC(C)(C)NC(=O)C(=O)N/N=C/c1ccc(Br)cc1
[4]
  AC50: 15.8 µM (inconclusive)
[2]
  AC50: 15.8 µM (inconclusive)

## O=C(O)/C=C\C(=O)Nc1ccc2c(c1)-c1ccccc1C2
[4]
  AC50: 1 µM (inconclusive)
[3]
  AC50: 3.98 µM (inconclusive)

## CCN(Cc1ccccc1)S(=O)(=O)c1ccc(F)cc1
[1]
  EC50: > 195 µM (not active)

## COc1ccc(CNc2nc(-c3c(C)noc3C)nc3ccccc23)c(OC)c1
[2]
  AC50: 1 µM (inconclusive)

## Fc1ccc(-n2cc(CNCCc3ccccn3)c(-c3ccccc3Cl)n2)cc1
[1]
  EC50: > 195 µM (not active)

## c1ccc(CNc2ncncc2-c2cccnc2)cc1
[6]
  AC50: 39.8 µM (inconclusive)

## O=C(CCN1C(=O)/C(=C/c2ccc(F)cc2)SC1=S)NCCCn1ccnc1
[1]
  EC50: > 195 µM (not active)

## O=C(CC(Nc1ccccc1Cl)C(=O)OCC(=O)c1cccs1)c1ccccc1 (stereo unspecified)
[1]
  EC50: 0.847 µM (active)

## C[C@@H](C(=O)O)[C@H]1C[C@]1(C)[C@H](NC(=O)OCc1ccccc1)c1ccccc1
[3]
  AC50: 12.6 µM (inconclusive)

## CCCc1nc2sc3ccccc3c(=O)c2c(=O)n1CCOC
[5]; read-out: AC50
  AC50: 39.8 µM (inconclusive)
[3]
  AC50: 35.5 µM (inconclusive)

## CC(C)OC(=O)c1nnn(-c2nonc2N)c1CSc1ccccn1
[6]
  AC50: 15.8 µM (inconclusive)

## Cc1cc(NC(=O)Cn2ccc([N+](=O)[O-])n2)no1
[1]
  EC50: > 195 µM (not active)

## Cn1cc(/C=N/n2cnc3scc(-c4ccccc4)c3c2=O)c2ccccc21
[3]
  AC50: 3.98 µM (inconclusive)

## COc1cc(/C=C/C(=O)Nc2ccccc2C(F)(F)F)cc(OC)c1OC
[4]
  AC50: 28.2 µM (inconclusive)
[5]; read-out: AC50
  AC50: 17.8 µM (inconclusive)
[3]
  AC50: 14.1 µM (inconclusive)

## Cc1ccc2[nH]c(-c3ccc(NC(=O)Cc4cccs4)cc3)nc2c1
[5]; read-out: AC50
  AC50: 1 µM (inconclusive)
[2]
  AC50: 0.708 µM (inconclusive)

## COC(=O)[C@@]1(Cc2ccc(F)cc2)[C@H]2c3cc(C(=O)N(C)C)n(Cc4ccc(C(F)(F)F)nc4)c3C[C@H]2CN1C(=O)c1ccccc1
[6]
  AC50: 20 µM (inconclusive)

## O=C(CSc1nnc(COc2ccccc2)n1-c1ccccc1)c1ccccc1
[4]
  AC50: 28.2 µM (inconclusive)
[6]
  AC50: 31.6 µM (inconclusive)

## COc1cccc(Nc2ncc3nc(CCc4ccccc4)c(=O)n(C4CC4)c3n2)c1
[4]
  AC50: 5.01 µM (inconclusive)
[3]
  AC50: 10 µM (inconclusive)

## O=C(Cn1nnc2ccccc21)N1CCCCC1
[5]; read-out: AC50
  AC50: 22.4 µM (inconclusive)
[2]
  AC50: 0.00562 µM (inconclusive)

## Cc1ccc(-c2nc3ccccc3s2)cc1NC(=S)NC(=O)c1ccccc1
[4]
  AC50: 15.8 µM (inconclusive)
[5]; read-out: AC50
  AC50: 22.4 µM (inconclusive)
[3]
  AC50: 14.1 µM (inconclusive)
